Data reported in ChEMBL document CHEMBL1671675, “Population pharmacokinetics of ganciclovir after intravenous ganciclovir and oral valganciclovir administration in solid organ transplant patients infected with cytomegalovirus” (Antimicrob Agents Chemother, 2009).

What was measured:
Homo sapiens [1] = assay: (§1) Central volume of distribution in solid organ transplant patient exhibiting […] creatinine clearance infected with cytomegalovirus at 5 mg/kg, iv bid for 5 days followed by 900 mg of oral valganciclovir dosed twice daily for 16 days dose adjustment for renal function by final population pharmacokinetic model; format: ADME, organism-based; parameters: dose 5 mg/kg, route oral; settings: in vivo
Homo sapiens [2] = assay: (§2) Drug absorption in solid organ transplant patient exhibiting […] creatinine clearance infected with cytomegalovirus assessed as first-order absorption rate constant at 5 mg/kg, iv bid for 5 days followed by 900 mg of oral valganciclovir dosed twice daily for 16 days dose adjustment for renal function; format: ADME, organism-based; parameters: dose 5 mg/kg, route oral; settings: in vivo
Homo sapiens [3] = assay: (§3) Clearance in solid organ transplant patient exhibiting […] creatinine clearance infected with cytomegalovirus at 5 mg/kg, iv bid for 5 days followed by 900 mg of oral valganciclovir dosed twice daily for 16 days dose adjustment for renal function by basal population pharmacokinetic model; format: ADME, organism-based; parameters: dose 5 mg/kg, route oral; settings: in vivo
[4] = (§4) Bioavailability in solid organ transplant patient exhibiting […] creatinine clearance infected with cytomegalovirus at 5 mg/kg, iv bid for 5 days followed by 900 mg of oral valganciclovir dosed twice daily for 16 days dose adjustment for renal function by final population pharmacokinetic model; format: ADME, organism-based; settings: human, in vivo
Homo sapiens [5] = assay: as §3, with “Intercompartmental clearance between central and peripheral compartments” for “Clearance”; format: ADME, organism-based; parameters: dose 5 mg/kg, route oral; settings: in vivo
[6] = Bioavailability in solid organ transplant patient exhibiting 57 mL/min creatinine clearance infected with cytomegalovirus at 5 mg/kg, iv bid for 5 days followed by 900 mg of oral valganciclovir dosed twice daily for 16 days dose adjustment for renal function by basal population pharmacokinetic model; settings: human, in vivo
Homo sapiens [7] = assay: as §1, with “basal” for “final”; format: ADME, organism-based; parameters: dose 5 mg/kg, route oral; settings: in vivo
Homo sapiens [8] = assay: as §4, with “Intercompartmental clearance between central and peripheral compartments” for “Bioavailability”; format: ADME, organism-based; parameters: dose 5 mg/kg, route oral; settings: in vivo
Homo sapiens [9] = assay: Clearance in solid organ transplant patient exhibiting […] creatinine clearance infected with cytomegalovirus at 5 mg/kg, iv bid for 5 days followed by 900 mg of oral valganciclovir dosed twice daily for 16 days dose adjustment for renal function by final population pharmacokinetic model; format: ADME, organism-based; parameters: dose 5 mg/kg, route oral; settings: in vivo
Homo sapiens [10] = assay: as §2, with “function by basal population pharmacokinetic model” for “function”; format: ADME, organism-based; parameters: dose 5 mg/kg, route oral; settings: in vivo

Nc1nc(O)c2ncn(COC(CO)CO)c2n1 [GANCICLOVIR]
Vd (Homo sapiens [1]): 31.9 L | Ka (Homo sapiens [2]): 0.895 h⁻¹ | CL (Homo sapiens [3]): 6.34 L/h | bioavailability [4]: 82.5% | CL (Homo sapiens [5]): 9.65 L/h | bioavailability [6]: 76% | Vd (Homo sapiens [7]): 32 L | CL (Homo sapiens [8]): 10.2 L/h | CL (Homo sapiens [9]): 7.49 L/h | Ka (Homo sapiens [10]): 0.971 h⁻¹
